Measurements taken from patent US20130196964A1, “HETEROCYCLICALLY SUBSTITUTED ARYL COMPOUNDS AS HIF INHIBITORS” (BAYER SCHERING PHARMA AKTIENGESELLSCHAFT, priority 2008, published 2013).
Counter-ions that a name gives are not always drawn.

Tested on: HCT 116 cells transfected with a luciferase reporter under the control of an HIF-responsive sequence
Assay: HIF-luciferase assay
Assay type: cell-based
Settings: Homo sapiens; HCT 116 HIF-luciferase reporter cells, hypoxia chamber (1% O2), 24 h, luminescence
Description: HCT 116 cells were transfected in a stable manner with a plasmid which contained a luciferase reporter under the control of an HIF-responsive sequence. These cells were sown in microtitre plates [20,000 cells/cavity in RPMI 1640 medium with 10% foetal calf serum (FCS) and 100 μg/ml of hygromycin]. Incubation was carried out overnight under standard conditions (5% CO2, 21% O2, 37° C., moistened). The following morning the cells were incubated with various concentrations of the test substances (0-10 μmol/l) in a hypoxia chamber (1% O2). After 24 h, Bright Glo reagent (Promega, Wis., USA) was added in accordance with the manufacturer'/s instructions, and after 5 min the luminescence was measured. Cells which were incubated under normoxia served as background controls.

Row | Compound | IC50
1 | Cc1cc(-c2nc(-c3ccc(OC(F)(F)F)cc3)no2)nn1Cc1ccnc(N2CCC(N(C)C)CC2)c1 [Example 16, N,N-Dimethyl-1-{4-[(5-methyl-3-{3-[4-(trifluoromethoxy)phenyl]-1,2,4-oxadiazol-5-yl}-1H-pyrazol-1-yl)methyl]pyridin-2-yl}piperidin-4-amine] | 4 nM
2 | Cc1cc(-c2nc(-c3ccc(OC(F)(F)F)cc3)no2)nn1Cc1ccnc(N2CC(N(C)C)C2)c1 [Example 18] | 5 nM
3 | Cc1cc(-c2nc(-c3ccc(OC(F)(F)F)cc3)no2)nn1Cc1ccnc(N2CCN(C(C)C)CC2)c1 [Example 21] | 10 nM
4 | Cc1cc(-c2nc(-c3ccc(OC(F)(F)F)cc3)no2)nn1Cc1cccc(C(=O)N2CCN(C3CC3)CC2)c1 [Example 35] | 2 nM
5 | Cc1cc(-c2nc(-c3ccc(S(=O)(=O)C(F)(F)F)cc3)no2)nn1Cc1cccc(C(=O)N2CCN(C)CC2)c1 [Example 41] | 6 nM
6 | Cc1cc(-c2nc(-c3ccc(C4(F)CCOCC4)cc3)no2)nn1Cc1cccc(C(=O)N2CCN(C)CC2)c1 [Example 45] | 10 nM
7 | Cc1cc(-c2nc(-c3ccc(OC(F)(F)F)cc3)no2)cn1Cc1cccc(C(=O)N2CCN(C)CC2)c1 [Example 52] | 3 nM
8 | Cc1cc(-c2nc(-c3ccc(OC(F)(F)F)cc3)no2)nn1Cc1ccnc(N2CCN(C3CC3)CC2)c1 [Example 65, 1-Cyclopropyl-4-{4-[(5-methyl-3-{3-[4-(trifluoromethoxy)phenyl]-1,2,4-oxadiazol-5-yl}-1H-pyrazol-1-yl)methyl]pyridin-2-yl}piperazine] | 0.6 nM
9 | Cc1cc(-c2nc(-c3ccc(C4CCOCC4)cc3)no2)nn1Cc1ccnc(N2CCN(C3CC3)CC2)c1 [Example 71, 1-Cyclopropyl-4-{4-[(5-methyl-3-{3-[4-(tetrahydro-2H-pyran-4-yl)phenyl]-1,2,4-oxadiazol-5-yl}-1H-pyrazol-1-yl)methyl]pyridin-2-yl}piperazine] | 1 nM
10 | Cc1cc(-c2nc(-c3ccc(OC(F)(F)F)cc3)no2)nn1Cc1ccnc(N2CCN(CC(F)(F)F)CC2)c1 [Example 72, 1-{4-[(5-Methyl-3-{3-[4-(trifluoromethoxy)phenyl]-1,2,4-oxadiazol-5-yl}-1H-pyrazol-1-yl)-methyl]pyridin-2-yl}-4-(2,2,2-trifluoroethyl)piperazine] | 1 nM
11 | Cc1cc(-c2nc(-c3ccc(C(C)(C)C)cc3)no2)nn1Cc1ccnc(N2CCN(C3CC3)CC2)c1 [Example 75, 1-[4-({3-[3-(4-tert-Butylphenyl)-1,2,4-oxadiazol-5-yl]-5-methyl-1H-pyrazol-1-yl}methyl)pyridin-2-yl]-4-cyclopropylpiperazine] | 1 nM
12 | COCC1(c2ccc(-c3noc(-c4cc(C)n(Cc5ccnc(N6CCN(C7CC7)CC6)c5)n4)n3)cc2)CCC1 [Example 77, 1-Cyclopropyl-4-(4-{[3-(3-{4-[1-(methoxymethyl)cyclobutyl]phenyl}-1,2,4-oxadiazol-5-yl)-5-methyl-1H-pyrazol-1-yl]methyl}pyridin-2-yl)piperazine] | 1 nM
13 | Cc1cc(-c2nc(-c3ccc(C(C)(C)C)cc3)no2)nn1Cc1ccnc(N2CCN(CC(F)(F)F)CC2)c1 [Example 78, 1-[4-({3-[3-(4-tert-Butylphenyl)-1,2,4-oxadiazol-5-yl]-5-methyl-1H-pyrazol-1-yl}methyl)pyridin-2-yl]-4-(2,2,2-trifluoroethyl)piperazine] | 0.5 nM
14 | Cc1cc(-c2nc(-c3ccc(OC(F)(F)F)cc3)no2)nn1Cc1ccnc(N2CCC(C#N)CC2)c1 [Example 85, 1-{4-[(5-Methyl-3-{3-[4-(trifluoromethoxy)phenyl]-1,2,4-oxadiazol-5-yl}-1H-pyrazol-1-yl)-methyl]pyridin-2-yl}piperidine-4-carbonitrile] | 2 nM
15 | Cc1cc(-c2nc(-c3ccc(OC(F)(F)F)cc3)no2)nn1Cc1ccnc(N2CCN(C)C(=O)C2)c1 [Example 86, 1-Methyl-4-{4-[(5-methyl-3-{3-[4-(trifluoromethoxy)phenyl]-1,2,4-oxadiazol-5-yl}-1H-pyrazol-1-yl)methyl]pyridin-2-yl}piperazin-2-one] | 4 nM
16 | Cc1cc(-c2nc(-c3ccc(C4(C(F)(F)F)CC4)cc3)no2)nn1Cc1ccnc(N2CCN(C3CC3)CC2)c1 [Example 91, 1-Cyclopropyl-4-(4-{[5-methyl-3-(3-{4-[1-(trifluoromethyl)cyclopropyl]phenyl}-1,2,4-oxadiazol-5-yl)-1H-pyrazol-1-yl]methyl}pyridin-2-yl)piperazine] | 0.6 nM
17 | Cc1cc(-c2nc(-c3ccc(OC(F)(F)F)c(F)c3)no2)nn1Cc1ccnc(N2CCN(C3CC3)CC2)c1 [Example 93, 1-Cyclopropyl-4-{4-[(3-{3-[3-fluoro-4-(trifluoromethoxy)phenyl]-1,2,4-oxadiazol-5-yl}-5-methyl-1H-pyrazol-1-yl)methyl]pyridin-2-yl}piperazine] | 0.8 nM
18 | Cc1cc(-c2nc(-c3ccc(OC(F)(F)F)cc3)no2)nn1Cc1cccc(C(=O)N2CCCO2)c1 [Example 100, {3-[(5-Methyl-3-{3-[4-(trifluoromethoxy)phenyl]-1,2,4-oxadiazol-5-yl}-1H-pyrazol-1-yl)methyl]-phenyl}(1,2-oxazolidin-2-yl)methanone] | 2.5 nM
19 | Cc1cc(-c2nc(-c3cccc(OC(F)(F)F)c3)no2)nn1Cc1cccc(C(=O)N2CCN(C)CC2)c1 [Example 119, (4-Methylpiperazin-1-yl) {3-[(5-methyl-3-{3-[3-(trifluoromethoxy)phenyl]-1,2,4-oxadiazol-5-yl}-1H-pyrazol-1-yl)methyl]phenyl}methanone hydrochloride] | 20 nM
20 | Cc1cc(-c2nc(-c3ccc(C4(C(F)(F)F)CC4)cc3)no2)nn1Cc1cccc(C(=O)N2CCN(C)CC2)c1 [Example 137, (4-Methylpiperazin-1-yl)(3-{[5-methyl-3-(3-{4-[1-(trifluoromethyl)cyclopropyl]phenyl}-1,2,4-oxadiazol-5-yl)-1H-pyrazol-1-yl]methyl}phenyl)methanone] | 3 nM
21 | Cc1cc(-c2nc(-c3ccc(C(C)(C)C(F)(F)F)cc3)no2)nn1Cc1cccc(S(=O)(=O)N2CCC(O)CC2)c1 [Example 140, 1-({3-[(5-Methyl-3-{3-[4-(1,1,1-trifluoro-2-methylpropan-2-yl)phenyl]-1,2,4-oxadiazol-5-yl}-1H-pyrazol-1-yl)methyl]phenyl}sulfonyl)piperidin-4-ol] | 4 nM
22 | COC1CCN(c2cc(Cn3nc(-c4nc(-c5ccc(OC(F)(F)F)cc5)no4)cc3C)ccn2)CC1 [Example 150, 2-(4-Methoxypiperidin-1-yl)-4-[(5-methyl-3-{3-[4-(trifluoromethoxy)phenyl]-1,2,4-oxadiazol-5-yl}-1H-pyrazol-1-yl)methyl]pyridine] | 3 nM
